{"source": "patent US5696115A", "about": "“Method for treating nicotine withdrawal” (Eli Lilly and Company, priority 1995, dated 1997)", "key": {"[1]": {"test_system": "muscarinic cholinergic receptor", "experiment": "pharmacological studies, muscarinic cholinergic receptor activity"}, "rats": {"test_system": "rats", "experiment": "in vivo observation, overdose in rats", "details": "rats exposed to an overdose"}, "clinical subjects": {"test_system": "clinical subjects", "experiment": "clinical observation of pupil response", "type": "in vivo, human", "details": "rather than the expected pupilary dilation"}, "[2]": {"experiment": "detection of radiolabelled compound in saliva", "type": "in vivo"}, "[3]": {"details": "known; cited from earlier work"}, "[4]": {"test_system": "people addicted to nicotine", "details": "cited from earlier work"}}, "data": [{"smiles": "Cc1cc2c(s1)Nc1ccccc1N=C2N1CCN(C)CC1", "note": "[2-methyl-4-(4-methyl-1-piperazinyl)-10H-thieno[2,3-b][1,5]benzodiazepine]", "values": [{"measurement": "muscarinic receptor subtype profile", "setting": "[1]; in vivo animal and clinical observations", "value": "complex muscarinic receptor subtype profile"}, {"measurement": "muscarinic cholinergic receptor activity", "setting": "[1]; pharmacological studies", "value": "has muscarinic cholinergic receptor activity"}, {"measurement": "salivation", "setting": "rats", "value": "significant salivation"}, {"measurement": "pupilary response", "setting": "clinical subjects", "value": "pupilary constriction"}, {"measurement": "detection in saliva", "setting": "[2]", "value": "can be detected in the saliva"}, {"measurement": "antipsychotic activity", "setting": "[3]", "value": "can provide antipsychotic activity"}, {"measurement": "extrapyramidal symptoms", "setting": "[3]", "value": "less likely to induce extrapyramidal symptoms"}]}, {"smiles": "Clc1cccc(Cl)c1N=C1NCCN1", "note": "[clonidine]", "values": [{"measurement": "effectiveness versus placebo", "setting": "[4]; clonidine treatment for six weeks", "value": "more effective than placebo, but only for women"}]}, {"smiles": "CNC1(C)C2CCC(C2)C1(C)C", "note": "(stereo not shown) [mecamylamine]", "values": [{"measurement": "undesirable side effects", "setting": "[4]; receptor antagonist therapy", "value": "other undesirable side effects"}, {"measurement": "effect on tobacco consumption", "setting": "[4]; receptor antagonist therapy, short term effect", "value": "increasing tobacco consumption"}]}]}
